In paper PMC9143821, “Design and Synthesis of a Novel 4-aryl-N-(2-alkoxythieno [2,3-b]pyrazine-3-yl)-4-arylpiperazine-1-carboxamide DGG200064 Showed Therapeutic Effect on Colon Cancer through G2/M Arrest” (Pharmaceuticals, 2022):

Legend:
HT29 = assay: SRB assay, colon cancer cell growth inhibition; assay type: cell-based; conditions: Homo sapiens, HT-29, 48 h
Protocol: (§1) A series of 4-phenyl-N-(thieno[2,3-b]pyrazin-3-yl)piperazine-1-carboxamides derivatives 7a–7i were tested for the colon cancer cell growth inhibition effect using the SRB assay (Table 2). […] Compounds 7a and 7b, containing chlorine at the C6 position of thieno[2,3-b]pyrazine ring, have weaker anticancer activity than its proton-containing derivatives 7c–7i. On the other hand, 7c has shown higher inhibition activity than 7d with methyl substituents at the C3 and C5 positions of the phenyl ring. […] Substitutions with one fluorine atom in the phenyl ring could not improve the inhibition effect of the compounds 7g–7h.
(§2) The HCT116, HCT8, KM12, HCT15, HT29, COLO-205, SW620 cell line was obtained from the National Cancer Institute (Material Transfer Agreement number: 2702–09). DLD1 cell line was obtained from the Korean cell line bank. Cells were cultured in complete Roswell Park Memorial Institute (RPMI) 1640 medium (Hyclone, South Logan, UT, USA) containing 10% fetal bovine serum (Hyclone, South Logan, UT, USA) in an atmosphere of 5% CO2 and 100% humidity at 37 °C. A small interfering RNA (siRNA) duplex targeting human c-Jun and FBXW7 (Genolution, Seoul, Korea) were introduced into cells using Lipofector-EXT (AptaBio, Yongin, Korea), according to the manufacturer’s instructions. As negative controls, cells were incubated with Lipofector-EXT (AptaBio, Yongin, KOR) and a negative siRNA (Genolution, Seoul, Korea).
(§3) Cells (100 μL containing 5000–10,000 cells/well) were incubated in 96 well microtiter plates. After 24 h, drugs were added (100 μL) to each well and the cultures were incubated for 48 h at 37 °C. The cells were then fixed in TCA (50 μL per well). The plates were incubated for a minimum of 1 h or a maximum of 3 h at 4 °C. The liquid was removed from the plate, which was then rinsed five times with water and allowed to dry at room temperature (rt) for approximately 12–24 h. The fixed cells were stained with 100 μL Sulforhodamine B (SRB) solution for 5 min at rt. After staining, the plate was washed three times with 1% glacial acetic acid and dried at rt for approximately 12–24 h. The SRB was then solubilized in 10 mM Tris buffer, and the absorbance was read at 515 nm. The effect of the drugs was expressed as GI50 (50% growth inhibition).

SW620 = assay: SRB assay, colon cancer cell growth inhibition; assay type: cell-based; conditions: Homo sapiens, SW-620, 48 h
Protocol: as §1, §2, §3

Colo205 = assay: SRB assay, colon cancer cell growth inhibition; assay type: cell-based; conditions: Homo sapiens, COLO 205, 48 h
Protocol: as §1, §2, §3

KM12 = assay: SRB assay, colon cancer cell growth inhibition; assay type: cell-based; conditions: Homo sapiens, 48 h
Protocol: as §1, §2, §3

HCT15 = assay: SRB assay, colon cancer cell growth inhibition; assay type: cell-based; conditions: Homo sapiens, HCT-15, 48 h
Protocol: as §1, §2, §3

HCT116 = assay: SRB assay, colon cancer cell growth inhibition; assay type: cell-based; conditions: Homo sapiens, HCT-116; HCT116, SRB, 48 h
Protocol: as §1, §2, §3

HCT8 = assay: SRB assay, colon cancer cell growth inhibition; assay type: cell-based; conditions: Homo sapiens, HCT-8, 48 h
Protocol: as §1, §2, §3

logP determination = assay type: physicochemical
Excerpt: Table 4 Physicochemical Properties of the Lead Compounds 7c. | column: 7c

COc1cc(OC)cc(N2CCN(C(=O)Nc3nc4sccc4nc3OC)CC2)c1 [Compound 7c, 4-(3,5-Dimethoxyphenyl)-N-(2-methoxythieno[2,3-b]pyrazin-3-yl)piperazine-1-carboxamide]
GI50 (HT29): 17 nM
GI50 (SW620): 27 nM
GI50 (Colo205): 24 nM
GI50 (KM12): 8 nM
GI50 (HCT15): 26 nM
GI50 (HCT116): 12 nM
GI50 (HCT8): 54 nM
logP (logP determination): 2.63
